The source of these data is BindingDB's records for doi:10.1021/jm030040o (Schering-Plough Research Institute, 2003).

In general, Ki refers to the dissociation constant of the complex between target and ligand, obtained from inhibition or displacement. Lower therefore signals higher affinity.

Structures are written as SMILES.

This test has as its target Genome polyprotein (Hepatitis C virus). The test is described as follows: Binding constant against hepatitis C virus (HCV) protease.
`CC[C@H](C)[C@H](NC(=O)[C@H](CC(C)C)NC(=O)[C@@H](CCC(=O)O)NC(=O)[C@H](CC(=O)O)NC(C)=O)C(=O)N[C@@H](CC1CCCCC1)C(=O)N[C@@H](CCS)C(=O)O` [2-[(S)-(S)-2-((R)-2-{(S)-2-[(R)-2-((S)-2-Acetylamino-3-carboxy-propionylamino)-4-(S)-carboxy-butyrylamino]-4-methyl-pentanoylamino}-3-methyl-pentanoylamino)-3-cyclohexyl-propionylamino]-4-mercapto-butyric acid] gave a Ki of 80 µM.

The compound `CC[C@H](NC(=O)[C@H](CC1CCCCC1)NC(=O)[C@@H](NC(=O)[C@H](CC(C)C)NC(=O)[C@@H](CCC(=O)O)NC(=O)[C@H](CC(=O)O)NC(C)=O)[C@@H](C)CC)C(=O)O` [2-[(S)-(S)-2-((R)-2-{(S)-2-[(R)-2-((S)-2-Acetylamino-3-carboxy-propionylamino)-4-(S)-carboxy-butyrylamino]-4-methyl-pentanoylamino}-3-methyl-pentanoylamino)-3-cyclohexyl-propionylamino]-butyric acid] showed a Ki of 0.6 µM.

Regarding `CCCC[C@H](NC(=O)[C@H](CC1CCCCC1)NC(=O)[C@@H](NC(=O)[C@H](CC(C)C)NC(=O)[C@@H](CCC(=O)O)NC(=O)[C@H](CC(=O)O)NC(C)=O)[C@@H](C)CC)C(=O)O` [2-[(S)-(S)-2-((R)-2-{(S)-2-[(R)-2-((S)-2-Acetylamino-3-carboxy-propionylamino)-4-(S)-carboxy-butyrylamino]-4-methyl-pentanoylamino}-3-methyl-pentanoylamino)-3-cyclohexyl-propionylamino]-hexanoic acid], the Ki was 2 µM.

Take `CCC[C@H](NC(=O)[C@H](CC1CCCCC1)NC(=O)[C@@H](NC(=O)[C@H](CC(C)C)NC(=O)[C@@H](CCC(=O)O)NC(=O)[C@H](CC(=O)O)NC(C)=O)[C@@H](C)CC)C(=O)O` [(S)-2-[(S)-2-((R)-2-{(S)-2-[(R)-2-((S)-2-Acetylamino-3-carboxy-propionylamino)-4-(S)-carboxy-butyrylamino]-4-methyl-pentanoylamino}-3-methyl-pentanoylamino)-3-cyclohexyl-propionylamino]-pentanoic acid]: the Ki was determined as 0.13 µM.

As to `CCSC[C@H](NC(=O)[C@H](CC1CCCCC1)NC(=O)[C@@H](NC(=O)[C@H](CC(C)C)NC(=O)[C@@H](CCC(=O)O)NC(=O)[C@H](CC(=O)O)NC(C)=O)[C@@H](C)CC)C(=O)O` [(S)-4-((S)-2-Acetylamino-3-carboxy-propionylamino)-4-((R)-(S)-1-{1-[(R)-(R)-1-((S)-1-carboxy-2-ethylsulfanyl-ethylcarbamoyl)-2-cyclohexyl-ethylcarbamoyl]-2-methyl-butylcarbamoyl}-3-methyl-butylcarbamoyl)-butyric acid], the Ki stood at 5 µM.

As for `CC[C@H](C)[C@H](NC(=O)[C@H](CC(C)C)NC(=O)[C@@H](CCC(=O)O)NC(=O)[C@H](CC(=O)O)NC(C)=O)C(=O)N[C@@H](CC1CCCCC1)C(=O)N[C@@H](CS)C(=O)O` [(S)-4-((S)-2-Acetylamino-3-carboxy-propionylamino)-4-((R)-(S)-1-{1-[(R)-(R)-1-((S)-1-carboxy-2-mercapto-ethylcarbamoyl)-2-cyclohexyl-ethylcarbamoyl]-2-methyl-butylcarbamoyl}-3-methyl-butylcarbamoyl)-butyric acid], the Ki stood at 0.12 µM.

`CC[C@H](C)[C@H](NC(=O)[C@H](CC(C)C)NC(=O)[C@@H](CCC(=O)O)NC(=O)[C@H](CC(=O)O)NC(C)=O)C(=O)N[C@@H](CC1CCCCC1)C(=O)N[C@@H](CSC)C(=O)O` [(S)-4-((S)-2-Acetylamino-3-carboxy-propionylamino)-4-((R)-(S)-1-{1-[(R)-(R)-1-((S)-1-carboxy-2-methylsulfanyl-ethylcarbamoyl)-2-cyclohexyl-ethylcarbamoyl]-2-methyl-butylcarbamoyl}-3-methyl-butylcarbamoyl)-butyric acid] had a Ki of 0.5 µM.
